Assay results reported in patent publication US20080207632A1, “PROTEIN KINASE INHIBITORS” (SUPERGEN, INC., priority 2006, published 2008).
pIC50: −log10 of the molar value.

What was measured:
[1] = test system: HT-29 human colon cancer cells; assay: HT-29 xenograft study in mice (Example 19); assay type: in vivo; details: 25 mg/kg intraperitoneally, q.d.x 5 for two weeks
Procedure: In order to evaluate the effectiveness of compound 1-1 against tumor cells in a living system, a xenograft study was performed in mice. 1×10^7 HT-29 human colon cancer cells were injected subcutaneously into 16 Nu/Nu athymic nude mice (Charles River Laboratories, Wilmington, Mass.). Tumor volume was measured according to the formula ((Width)^2*Length)/2. Tumors were allowed to grow to approximately 100 mm^3 in volume (Day 0), at which point mice were randomized to two groups: Eight mice were treated with 25 mg/kg compound 1-1, while the other eight were given an equal volume of drug vehicle. For this study, the drug vehicle used was 60% propylene glycol, 30% polyethylene glycol 300, 10% ethanol with 150 mg/mL 2-hydroxypropyl-beta-cyclodextrin. Each mouse received 0.1 mL of drug or vehicle intraperitoneally on a q.d.x 5 schedule for two weeks, with two days rest between cycles.

HT-29 cells = assay: hollow fiber xenograft model (MTT), HT-29; assay type: in vivo, athymic nude mice; details: HT-29 fibers implanted IP
Procedure: Compound 2-3 was tested against three tumor types in athymic nude mice using the hollow fiber xenograft model. After incubation and growth overnight, drug-permeable fibers containing tumor cells were surgically implanted either intraperitoneally (IP) or subcutaneously (SC) and allowed to grow for 24-hours. After treatment with compound 2-3, fibers were removed and tumor cell growth was measured using the MTT assay. A549, Panc-1 or HT-29 cells were injected into separate fibers and each mouse received a fiber containing each cell line both SC and IP totaling six fibers per mouse.

[2] = test system: A549 non-small cell lung carcinoma cells; assay: cell cycle distribution by DNA content flow cytometry (Guava); assay type: cell-based; details: synchronized A549 cells, 24 hours post-release
Procedure: It is expected that a specific Aurora-2 kinase inhibitor would cause only brief cell cycle arrest at G2/M, which should be immediately followed by apoptosis. This is in contrast to Aurora-1 kinase inhibitors, which tend to cause a prolonged cell cycle arrest. compound 2-3 was examined for its ability to cause cell cycle arrest and apoptosis. Briefly, A549 non-small cell lung carcinoma cells were plated at 50000 cells/mL in a 24-well plate. Cells were synchronized with 4 μg/mL Aphidicolin for 16 hours, followed by a 24 hour synchronization with 1 μg/mL Hoechst 33342, to arrest the cells at the G2/M boundary. Cells were then released into regular medium with or without SGI-498 and allowed to grow for an additional 24 hours. This synchronization was necessary for visualization of the brief G2/M arrest caused by compound 2-3. Following this incubation, cells were stained for DNA content analysis using the Guava Cell Cycle Assay Kit (Guava Technologies, Hayward Calif.), according to manufacturer instructions. Cells were then analyzed with the Guava EasyCyte benchtop flow cytometer using the Guava Cell Cycle analysis protocol. Cells were gated according to DNA content into G0/G1, S, G2/M or apoptotic (sub-G1) categories.

[3] = test system: Granta-4 lymphoma cell line; assay: lymphoma cell number reduction, Granta-4; assay type: cell-based; details: 48 hours; read-out: IC50 Values Granta-4, single agent
Procedure: New IC50 values were calculated for the second agent in an effort to determine whether or not pretreatment with one compound would increase sensitivity to the other. As set forth in the table below, compound 2-3 pretreatment led to an increased sensitivity to Taxol®, however Taxol® pretreatment appeared to be […] to compound 2-3 in this assay.

[4] = test system: HT-29 human colon cancer cells; assay: HT-29 xenograft study in mice (Example 57); assay type: in vivo; details: 5 mg/kg IP, QDx5 for three weeks
Procedure: In order to evaluate the effectiveness of compound 2-5 against tumor cells in a living system, a xenograft study was performed in mice. 1×10^7 HT-29 human colon cancer cells were injected subcutaneously into Nu/Nu athymic nude mice (Charles River Laboratories, Wilmington, Mass.). Tumor volume was measured according to the formula ((Width)^2*Length)/2. Tumors were allowed to grow to approximately 200 mm^3 in volume (Day 0), at which point mice were randomized to three groups. Eight mice were grouped to receive SGI-1097 as treatment, and two groups of eight would receive vehicle alone as a negative control. The SGI-1097 compound was formulated in the following vehicle: 10% EtOH; 30% PEG 300; 60% solution of 300 mg/ml 2-Hydroxypropyl-beta-cyclodextrin in water.
In the treatment group, each animal received 5 mg/kg of compound 2-5 in the aforementioned vehicle at a volume of 100 μl, dosed IP. The dosing schedule was QDx5 for three weeks. […]
Another negative control group was dosed PO with corn oil on the same dosing schedule. The tumor volumes for both the treated and untreated groups were measured twice a week for the three week dosing period, and for one week after the dosing period.

CC(=O)NS(=O)(=O)c1ccc(NC(=S)N2CCN(c3ncnc4[nH]c5cc(C(F)(F)F)c(Cl)cc5c34)CC2)cc1 [Compound 1-1, 4-(6-Chloro-7-trifluoromethyl-9H-pyrimido[4,5-b]indol-4-yl)-piperazine-1-carbothioic acid (4-acetylsulfamoyl-phenyl)-amide]
toxicity through the duration of the study [1]: No noticeable toxicity | tumor growth inhibition in vivo [1]: effective for inhibiting tumor growth in vivo

COc1cc2[nH]c3ncnc(N4CCN(C(=S)Nc5ccc(S(=O)(=O)Nc6ccc(F)cc6)cc5)CC4)c3c2cc1OC [Compound 2-3, 4-(6,7-dimethoxy-9H-pyrimido[4,5-b]indol-4-yl)-N-(4-(N-(4-fluorophenyl)sulfamoyl)phenyl)piperazine-1-carbothioamide]
tumor cell growth in fibers (HT-29 cells; 20 mg/kg intravenous): 53.8% | tumor cell growth in fibers (HT-29 cells; 40 mg/kg intravenous): 73.4% | cell cycle arrest and apoptosis [2]: Brief Cell Cycle Arrest in G2/M. Followed by Apoptosis | pIC50 [3]: 5.69

COc1ccc2c(c1)[nH]c1ncnc(N3CCN(C(=S)Nc4ccc(S(=O)(=O)Nc5ccc(F)cc5)cc4)CC3)c12 [Compound 2-5, 4-(7-methoxy-9H-pyrimido[4,5-b]indol-4-yl)-N-(4-(N-(4-fluorophenyl)sulfamoyl)phenyl)piperazine-1-carbothioamide]
toxicity through the duration of the study [4]: No noticeable toxicity | tumor growth inhibition in vivo [4]: effective for inhibiting tumor growth in vivo
